Laboratory results from paper PMC5361079 (Scientific Reports, 2017).
Like-named read-outs stand apart in the source and are kept apart here.

Columns and labels:
[1] = tested on: anesthetized, male Dunkin-Hartley guinea pigs; conditions: cumulative IV infusion dose 2.5 mg/kg amiodarone alone; cited from earlier work
[2] = tested on: hiPSC-CM syncytia; test: Spontaneous FP rate and IMP amplitude/beating rate in hiPSC-CM syncytia (RTCA CardioECR / RTCA Cardio); format: cell-based, human; conditions: for Effect on FP rate / Effect on IMP amplitude: prodrug co-administered with 0.3 μM amiodarone, steady state (4 h), spontaneously beating hiPSC-CM syncytia
Procedure: hiPSC-CMs (iCells®) from Cellular Dynamics International (CDI, Madison, WI, USA) were seeded onto 48-well CardioECR or 96-well Cardio E-Plates® (ACEA Biosciences Inc., San Diego, CA, USA) coated with 10 μg/mL fibronectin (Sigma Aldrich, Catalog# F1141) at 30,000 cells/well, following manufacturer’s recommendations. Cells were maintained in culture (37 °C, 5% CO2) for a period of 14 days with iCell Maintenance® media (CDI, Madison, WI, USA) exchanged every 2–3 days. Compound addition was only performed on or after Day 14 following cell seeding.
Compound stock solutions were prepared in 100% DMSO or H2O. On the day of compound addition, the media was exchanged with fresh iCell Maintenance® media and allowed to equilibrate for at least 3 h in the incubator. The plates were read on an xCELLigence® RTCA CardioECR or RTCA Cardio (ACEA Biosciences Inc., San Diego, CA, USA). Control pre-reads to establish a baseline were recorded for at least 45 minutes (4 reads at 15-min intervals) prior to compound addition. The compound stock solutions were diluted into iCell Maintenance® media and quickly added to the plate. The plate was continuously monitored for at least 18 h following compound addition. IMP data were sampled at 12 ms (83 Hz), while FP rate data were collected at 0.1 ms (10 KHz). Attachment, growth and viability of syncytia were monitored by means of the baseline IMP signal, as previously described. IMP and FP signals were only interpreted if the baseline IMP was maintained throughout the measurement period (usually ≤18 hrs) at ≥70% of the value before test compound application (pre-read value).

[3] = tested on: hiPSC-CMs; test: Intracellular prodrug, cleavage intermediate metabolite and NTP metabolite concentrations in hiPSC-CMs; format: in vitro ADME, human
Procedure: Approximately 18 h before dosing, iCell hiPSC-CMs were switched to iCell cardiomyocyte maintenance media free of Penicillin/Streptomycin. […] […] After the corresponding treatment, cells were washed 2x with 200 μL of ice-cold magnesium- and calcium-free PBS buffer. Cells were then lysed in 100 μL of ice-cold lysis solution (70/30 methanol/water containing 20 mM EDTA and 20 mM EGTA, pH 8) by pipetting up and down 5 times. Plates were sealed and transferred on dry ice for determination of prodrug, cleavage intermediate metabolite, and NTP metabolite concentrations. Intracellular prodrug concentrations were measured using a reversed phase HPLC- high resolution mass spectrometry method. A dimethylhexylamine based ion-pairing HPLC-MS/MS method was used to measure intracellular cleavage intermediate metabolite and NTP metabolite concentrations. Intracellular concentrations (pmol/million cells) of prodrug, cleavage intermediate metabolite, and NTP metabolite were quantitated against calibration standards of the same analytes prepared from control iCell hiPSC-CM lysates.
For prodrug analyses, full scan high resolution mass spectrometry data was collected using an Exactive™ Orbitrap mass spectrometer with an electrospray source operated in the positive ion mode. Prodrug chromatograms were extracted from full scan high resolution mass spectrometry data for the masses indicated in Supplementary Table 5. Absence of endogenous interference(s) was verified by extracting the same ion from full scan high resolution mass spectrometry chromatograms of unspiked control cell lysates. For the cleavage intermediate metabolite and NTP metabolite an electrospray MS/MS method run on a SCIEX API 4000 mass spectrometer with turboV ionspray source was used in negative ion mode monitoring the transitions indicated in Supplementary Table 5. Absence of endogenous interference(s) was verified by monitoring of the same MRM transitions for unspiked control cell lysates. Measured intracellular prodrug, cleavage intermediate metabolite, and NTP metabolite concentrations (in pmol/million cells units) were tabulated (Table 2).

[4] = Cardiac tissue concentrations in anesthetized guinea pigs; format: in vivo, guinea pig; conditions: end of IV infusions, prodrug alone or + amiodarone
[5] = anesthetized guinea pigs, cited from earlier work
[6] = tested on: anesthetized, male Dunkin-Hartley guinea pigs; test: Heart rate in anesthetized guinea pigs, IV infusion; format: in vivo, guinea pig
Source text: Adult, male Dunkin-Hartley guinea pigs (350–550 g) were anesthetized and instrumented as previously described[7][29].

[7] = Plasma concentration in anesthetized guinea pigs; conditions: IV
Source text: Adult, male Dunkin-Hartley guinea pigs (350–550 g) were anesthetized and instrumented as previously described.

[8] = tested on: conscious, male rhesus monkeys; test: Heart rate, MBP and ECG intervals in conscious, restrained rhesus monkeys; format: in vivo, rhesus monkey
Procedure: (§1) Arterial BP and ECG waveforms from four chronically-instrumented male, rhesus monkeys (8-16 kg at time of study, approximately 5–8 years of age), were continuously recorded (Notocord-hem™ v 4.3.0.67) and analyzed as described. Prior to study, animals were acclimated to the restraint chair and the laboratory environment over multiple sessions. […] MNI-2 was formulated in 30% Captisol®. […] Samples were placed on wet ice, centrifuged at 4 °C and plasma removed and stored at −70 °C until analysis of concentration of test agents and any metabolites of interest.

[9] = Plasma concentration in conscious rhesus monkeys; conditions: at the end of the MNI-2+amiodarone experiment
Procedure: as §1

[10] = 10 μM prodrug in the presence of 0.3 μM amiodarone
[11] = 30 Min, SOF-3 mM, SOF + A (0.3 µM amiodarone) + Ebel, LOQ=17
[12] = hiPSC-CMs, 10 μM prodrug + 0.3 μM amiodarone, 4 Hours
[13] = hiPSC-CMs, 10 μM prodrug + 0.3 μM amiodarone, 30 Min
[14] = hiPSC-CMs, 10 μM prodrug + 0.3 μM amiodarone, 30 Min, BLOQ = below 17 pmol/million cells
[15] = hiPSC-CMs, 10 μM prodrug alone, 4 Hours
[16] = hiPSC-CMs, 10 μM prodrug alone, 30 Min
[17] = hiPSC-CMs, 10 μM prodrug alone, 30 Min, BLOQ = below 17 pmol/million cells
[18] = hiPSC-CMs, 10 μM prodrug + 0.3 μM amiodarone, 4 Hours, BLOQ = below 17 pmol/million cells
[19] = hiPSC-CMs, 10 μM prodrug alone, 4 Hours, BLOQ = below 17 pmol/million cells

CCCCc1oc2ccccc2c1C(=O)c1cc(I)c(OCCN(CC)CC)c(I)c1 [amiodarone]
HR, % change from baseline [1]: −7%

CC(C)OC(=O)[C@H](C)NP(=O)(OC[C@H]1O[C@@H](n2ccc(=O)[nH]c2=O)[C@](C)(F)[C@@H]1O)Oc1ccccc1 (stereo partly drawn) [sofosbuvir, isopropyl (2S)-2-[[[(2R,3R,4R,5R)-5-(2,4-dioxopyrimidin-1-yl)-4-fluoro-3-hydroxy-4-methyl-tetrahydrofuran-2-yl]methoxy-phenoxy-phosphoryl]amino]propanoate, reference compound]
Change in IMP amplitude (RTCA Cardio) [2, 10]: −97% ± 2% | Change in beating rate (IMP-measured, RTCA Cardio) [2, 10]: +146% ± 11% | IMP amplitude ([2]; 11 μM sofosbuvir co-applied with 0.3 μM amiodarone): below the limit of detection | Effect on FP rate [2]: Concentration-dependent, steady-state effects | Effect on IMP amplitude [2]: Concentration-dependent, steady-state effects | Intracellular Concentration, Sofosbuvir (Prodrug) ([3]; 4 Hours, SOF-10 μM, SOF): 66.9 ± 6.8 pmol/million cells | Intracellular Concentration, Sofosbuvir (Prodrug) ([3]; 4 Hours, SOF-3 mM, SOF): 19.6 ± 5.8 pmol/million cells | Intracellular Concentration, Sofosbuvir (Prodrug) ([3]; 4 Hours, SOF-3 mM, SOF + A (0.3 µM amiodarone) + Ebel): 46.9 ± 8.9 pmol/million cells | Intracellular Concentration, NTP Metabolite ([3]; 4 Hours, SOF-3 mM, SOF + A (0.3 µM amiodarone) + Ebel, LOQ=17): B LOQ | Intracellular Concentration, NTP Metabolite ([3]; 4 Hours, SOF-3 mM, SOF, LOQ=17): B LOQ | Intracellular Concentration, NTP Metabolite ([3]; 4 Hours, SOF-10 mM, SOF + A (0.3 µM amiodarone) + Ebel, LOQ=17): B LOQ | Intracellular Concentration, Sofosbuvir (Prodrug) ([3]; 30 Min, SOF-10 μM, SOF + A (0.3 µM amiodarone) + Ebel): 53.4 ± 9.5 pmol/million cells | Intracellular Concentration, Cleavage Intermediate Metabolite ([3]; 30 Min, SOF-10 μM, SOF + A (0.3 µM amiodarone) + Ebel, LOQ=17): B LOQ | Intracellular Concentration, Sofosbuvir (Prodrug) ([3]; 30 Min, SOF-3 mM, SOF): 19.5 ± 0.9 pmol/million cells | Intracellular Concentration, Cleavage Intermediate Metabolite [3, 11]: B LOQ | Intracellular Concentration, NTP Metabolite [3, 11]: B LOQ | Intracellular Concentration, NTP Metabolite ([3]; 30 Min, SOF-3 mM, SOF, LOQ=17): B LOQ | Intracellular Concentration, NTP Metabolite ([3]; 30 Min, SOF-10 mM, SOF + A (0.3 µM amiodarone) + Ebel, LOQ=17): B LOQ | Intracellular Concentration, NTP Metabolite ([3]; 30 Min, SOF-10 mM, SOF, LOQ=17): B LOQ | Intracellular Concentration, NTP Metabolite ([3]; SOF-10 mM, 4 Hours, 2a (SAR164653) 50 mM, LOQ=17): B LOQ | Intracellular Concentration, NTP Metabolite ([3]; SOF-10 mM, 4 Hours, 2a (SAR164653) 100 mM, LOQ=17): B LOQ | Intracellular Concentration, NTP Metabolite ([3]; SOF-10 mM, 30 Min, 2a (SAR164653) 0 mM, LOQ=17): B LOQ | Intracellular Concentration, NTP Metabolite ([3]; SOF-10 mM, 30 Min, 2a (SAR164653) 1 mM, LOQ=17): B LOQ | Intracellular Concentration, NTP Metabolite ([3]; SOF-10 mM, 30 Min, 2a (SAR164653) 10 mM, LOQ=17): B LOQ | Intracellular Concentration, NTP Metabolite ([3]; SOF-10 mM, 30 Min, 2a (SAR164653) 50 mM, LOQ=17): B LOQ | Intracellular Concentration, NTP Metabolite ([3]; SOF-10 mM, 30 Min, 2a (SAR164653) 100 mM, LOQ=17): B LOQ | Intracellular Concentration, Prodrug [3, 12]: 58.4 ± 6.0 pmol/million cells | Intracellular Concentration, Prodrug [3, 13]: 45.6 ± 2.0 pmol/million cells | Intracellular Concentration, NTP Metabolite [3, 14]: BLOQ | Intracellular Concentration, Prodrug [3, 15]: 50.1 ± 2.1 pmol/million cells | Intracellular Concentration, Prodrug [3, 16]: 46.7 ± 3.7 pmol/million cells | Intracellular Concentration, NTP Metabolite [3, 17]: BLOQ* | Cleavage intermediate metabolite and NTP metabolite in cardiac tissue [4]: present | Cardiac sofosbuvir concentration ([5]; cumulative IV sofosbuvir + amiodarone): ~ 6 nmol/g tissue | Cardiac sofosbuvir concentration ([5]; cumulative IV sofosbuvir alone): ~ 8 nmol/g tissue

CC(C)OC(=O)[C@@H](C)NP(=O)(OC[C@H]1O[C@@H](n2ccc(=O)[nH]c2=O)[C@](C)(F)[C@@H]1O)Oc1ccccc1 (stereo partly drawn) [MNI-2, isopropyl (2R)-2-[[[(2R,3R,4R,5R)-5-(2,4-dioxopyrimidin-1-yl)-4-fluoro-3-hydroxy-4-methyl-tetrahydrofuran-2-yl]methoxy-phenoxy-phosphoryl]amino]propanoate]
Effects on IMP-measured beating rate and IMP amplitude ([2]; 10 μM prodrug combined with 0.3 μM amiodarone, up to 18 h): failed to evoke changes over each drug alone | Effect on FP rate [2]: lack of effects | Effect on IMP amplitude [2]: lack of effects | Detection of cleavage intermediate metabolite or NTP in hiPSC-CMs ([3]; following application of prodrug (10 μM) ± amiodarone): no measurable concentrations | Intracellular Concentration, Prodrug [3, 12]: 61.0 ± 3.3 pmol/million cells | Intracellular Concentration, Cleavage Intermediate Metabolite [3, 18]: BLOQ | Intracellular Concentration, NTP Metabolite [3, 18]: BLOQ | Intracellular Concentration, Prodrug [3, 13]: 54.8 ± 3.3 pmol/million cells | Intracellular Concentration, Cleavage Intermediate Metabolite [3, 14]: BLOQ | Intracellular Concentration, NTP Metabolite [3, 14]: BLOQ | Intracellular Concentration, Prodrug [3, 15]: 173.0 ± 133.3 pmol/million cells | Intracellular Concentration, Cleavage Intermediate Metabolite [3, 19]: BLOQ | Intracellular Concentration, NTP Metabolite [3, 19]: BLOQ | Intracellular Concentration, Prodrug [3, 16]: 53.5 ± 4.5 pmol/million cells | Intracellular Concentration, Cleavage Intermediate Metabolite [3, 17]: BLOQ | Intracellular Concentration, NTP Metabolite [3, 17]: BLOQ | HR, % change from baseline ([6]; coadministration of 10 mg/kg MNI-2 and 2.5 mg/kg amiodarone IV (cumulative)): −9% | HR, % change from baseline ([6]; cumulative IV infusion dose 10 mg/kg MNI-2 alone): −3% | Plasma concentration of parent ([7]; agent + vehicle, End of Infusion 1): 4.2 ± 2.1 µM | Plasma concentration of parent ([7]; agent + vehicle, End of Infusion 2): 4.2 ± 0.9 µM | Plasma concentration of parent ([7]; agent + vehicle, End of Infusion 3): 3.9 ± 0.1 µM | Plasma concentration of parent ([7]; agent + vehicle, End of Infusion 4): 3.7 ± 1.0 µM | Plasma concentration of parent ([7]; treatment MNI-2+AMIO, End of Infusion 1): 3.0 ± 0.8 µM | Plasma concentration of parent ([7]; treatment MNI-2+AMIO, End of Infusion 2): 3.5 ± 1.0 µM | Plasma concentration of parent ([7]; treatment MNI-2+AMIO, End of Infusion 3): 3.7 ± 0.6 µM | Plasma concentration of parent ([7]; treatment MNI-2+AMIO, End of Infusion 4): 3.7 ± 0.9 µM | Cleavage intermediate metabolite and NTP metabolite in cardiac tissue [4]: did not produce detectable levels | Effect on HR ([8]; IV infusion of MNI-2 (4, then 2 mg/kg/30 min), alone or after prior administration of amiodarone (3 mg/kg/30 min)): no effect | MBP or PR, QRS, QT ECG interval changes ([8]; IV infusion of MNI-2 alone or after pretreatment with amiodarone): did not result in MBP or PR, QRS, QT ECG interval changes | Plasma concentration [9]: 3048 ± 413 ng/mL
